Measured values from the NIST ThermoML archive (doi:10.1016/j.fluid.2014.09.014).
Numbers after ± are expanded uncertainties.

Assay: refractive index (other wavelength) (dimensionless); xn = mol fraction of the nth substance listed
Conditions: 318.15 K, 101 kPa, Liquid, Standard Abbe refractometry

Question: For `CC(C)OC(C)C` [diisopropyl ether] + CO, which refractive index (Wavelength=486.1 nm, x2 = 0.1827) is on record?
Answer: 1.35814 ± 0.0004

Question: What about the refractive index (Wavelength=486.1 nm, x2 = 0.2162) of the same compound?
Answer: 1.35804 ± 0.0004

Question: And the refractive index (Wavelength=486.1 nm, x2 = 0.251)?
Answer: 1.35753 ± 0.00039

Question: What about the refractive index (Wavelength=486.1 nm, x2 = 0.3298) of the same compound?
Answer: 1.358 ± 0.00038

Question: What about the refractive index (Wavelength=486.1 nm, x2 = 0.3577) of the same compound?
Answer: 1.35689 ± 0.00038

Question: And the refractive index (Wavelength=486.1 nm, x2 = 0.4497)?
Answer: 1.35572 ± 0.00038

Question: What about the refractive index (Wavelength=486.1 nm, x2 = 0.4525) of the same compound?
Answer: 1.35631 ± 0.00037

Question: And the refractive index (Wavelength=486.1 nm, x2 = 0.522)?
Answer: 1.35398 ± 0.00035

Question: And the refractive index (Wavelength=486.1 nm, x2 = 0.5543)?
Answer: 1.35305 ± 0.00035

Question: And the refractive index (Wavelength=486.1 nm, x2 = 0.609)?
Answer: 1.35085 ± 0.00034

Question: What about the refractive index (Wavelength=486.1 nm, x2 = 0.6529) of the same compound?
Answer: 1.34936 ± 0.00034

Question: What about the refractive index (Wavelength=486.1 nm, x2 = 0.7504) of the same compound?
Answer: 1.34529 ± 0.00034

Question: And the refractive index (Wavelength=486.1 nm, x2 = 0.804)?
Answer: 1.33919 ± 0.00035

Question: And the refractive index (Wavelength=486.1 nm, x2 = 0.807)?
Answer: 1.34094 ± 0.00035

Question: And the refractive index (Wavelength=486.1 nm, x2 = 0.8727)?
Answer: 1.3379 ± 0.00033

Question: And the refractive index (Wavelength=486.1 nm, x2 = 0.9233)?
Answer: 1.32983 ± 0.00033

Question: And the refractive index (Wavelength=486.1 nm, x2 = 0.9253)?
Answer: 1.33151 ± 0.00032

Question: And the refractive index (Wavelength=486.1 nm, x2 = 0.9527)?
Answer: 1.32842 ± 0.00032

Question: And the refractive index (Wavelength=486.1 nm, x2 = 0.9773)?
Answer: 1.32541 ± 0.00032

Question: What about the refractive index (Wavelength=486.1 nm, x2 = 0.989) of the same compound?
Answer: 1.3242 ± 0.00032

Question: And the refractive index (Wavelength=486.1 nm, x2 = 0.9964)?
Answer: 1.32328 ± 0.00032

Question: And the refractive index (Wavelength=546.1 nm, x2 = 0)?
Answer: 1.35556 ± 0.00044

Question: What about the refractive index (Wavelength=546.1 nm, x2 = 0.0423) of the same compound?
Answer: 1.35556 ± 0.00043

Question: And the refractive index (Wavelength=546.1 nm, x2 = 0.0424)?
Answer: 1.35551 ± 0.00043

Question: What about the refractive index (Wavelength=546.1 nm, x2 = 0.082) of the same compound?
Answer: 1.35551 ± 0.00042

Question: And the refractive index (Wavelength=546.1 nm, x2 = 0.0822)?
Answer: 1.35565 ± 0.00042

Question: What about the refractive index (Wavelength=546.1 nm, x2 = 0.1171) of the same compound?
Answer: 1.35556 ± 0.00041

Question: What about the refractive index (Wavelength=546.1 nm, x2 = 0.1271) of the same compound?
Answer: 1.35557 ± 0.00041

Question: And the refractive index (Wavelength=546.1 nm, x2 = 0.1827)?
Answer: 1.35541 ± 0.0004

Question: What about the refractive index (Wavelength=546.1 nm, x2 = 0.2162) of the same compound?
Answer: 1.35526 ± 0.0004

Question: And the refractive index (Wavelength=546.1 nm, x2 = 0.251)?
Answer: 1.35479 ± 0.00039

Question: And the refractive index (Wavelength=546.1 nm, x2 = 0.3298)?
Answer: 1.35528 ± 0.00038

Question: What about the refractive index (Wavelength=546.1 nm, x2 = 0.3577) of the same compound?
Answer: 1.35419 ± 0.00038

Question: And the refractive index (Wavelength=546.1 nm, x2 = 0.4497)?
Answer: 1.35303 ± 0.00038

Question: And the refractive index (Wavelength=546.1 nm, x2 = 0.4525)?
Answer: 1.3537 ± 0.00038

Question: And the refractive index (Wavelength=546.1 nm, x2 = 0.522)?
Answer: 1.35136 ± 0.00035

Question: And the refractive index (Wavelength=546.1 nm, x2 = 0.5543)?
Answer: 1.35042 ± 0.00035

Question: What about the refractive index (Wavelength=546.1 nm, x2 = 0.609) of the same compound?
Answer: 1.34818 ± 0.00034

Question: And the refractive index (Wavelength=546.1 nm, x2 = 0.6529)?
Answer: 1.34672 ± 0.00034

Question: What about the refractive index (Wavelength=546.1 nm, x2 = 0.7504) of the same compound?
Answer: 1.34271 ± 0.00034

Question: What about the refractive index (Wavelength=546.1 nm, x2 = 0.804) of the same compound?
Answer: 1.33675 ± 0.00035

Question: What about the refractive index (Wavelength=546.1 nm, x2 = 0.807) of the same compound?
Answer: 1.33842 ± 0.00034

Question: What about the refractive index (Wavelength=546.1 nm, x2 = 0.8727) of the same compound?
Answer: 1.33543 ± 0.00033

Question: What about the refractive index (Wavelength=546.1 nm, x2 = 0.9233) of the same compound?
Answer: 1.32743 ± 0.00033

Question: What about the refractive index (Wavelength=546.1 nm, x2 = 0.9253) of the same compound?
Answer: 1.32907 ± 0.00032

Question: And the refractive index (Wavelength=546.1 nm, x2 = 0.9527)?
Answer: 1.32601 ± 0.00032

Question: And the refractive index (Wavelength=546.1 nm, x2 = 0.9773)?
Answer: 1.32301 ± 0.00032

Question: And the refractive index (Wavelength=546.1 nm, x2 = 0.989)?
Answer: 1.32177 ± 0.00032

Question: And the refractive index (Wavelength=546.1 nm, x2 = 0.9964)?
Answer: 1.3209 ± 0.00032

Question: And the refractive index (Wavelength=587.6 nm, x2 = 0)?
Answer: 1.35416 ± 0.00044

Question: And the refractive index (Wavelength=587.6 nm, x2 = 0.0423)?
Answer: 1.35414 ± 0.00043

Question: And the refractive index (Wavelength=587.6 nm, x2 = 0.0424)?
Answer: 1.3541 ± 0.00043

Question: What about the refractive index (Wavelength=587.6 nm, x2 = 0.082) of the same compound?
Answer: 1.35411 ± 0.00042

Question: What about the refractive index (Wavelength=587.6 nm, x2 = 0.0822) of the same compound?
Answer: 1.35423 ± 0.00042

Question: And the refractive index (Wavelength=587.6 nm, x2 = 0.1171)?
Answer: 1.35417 ± 0.00041

Question: What about the refractive index (Wavelength=587.6 nm, x2 = 0.1271) of the same compound?
Answer: 1.35415 ± 0.00041

Question: What about the refractive index (Wavelength=587.6 nm, x2 = 0.1827) of the same compound?
Answer: 1.354 ± 0.0004

Question: And the refractive index (Wavelength=587.6 nm, x2 = 0.2162)?
Answer: 1.35387 ± 0.0004

Question: And the refractive index (Wavelength=587.6 nm, x2 = 0.251)?
Answer: 1.35338 ± 0.00039

Question: And the refractive index (Wavelength=587.6 nm, x2 = 0.3298)?
Answer: 1.35387 ± 0.00038

Question: What about the refractive index (Wavelength=587.6 nm, x2 = 0.3577) of the same compound?
Answer: 1.35274 ± 0.00038

Question: What about the refractive index (Wavelength=587.6 nm, x2 = 0.4497) of the same compound?
Answer: 1.35162 ± 0.00038

Question: And the refractive index (Wavelength=587.6 nm, x2 = 0.4525)?
Answer: 1.35228 ± 0.00038

Question: What about the refractive index (Wavelength=587.6 nm, x2 = 0.522) of the same compound?
Answer: 1.34995 ± 0.00035

Question: And the refractive index (Wavelength=587.6 nm, x2 = 0.5543)?
Answer: 1.34905 ± 0.00035

Question: What about the refractive index (Wavelength=587.6 nm, x2 = 0.609) of the same compound?
Answer: 1.34684 ± 0.00034

Question: And the refractive index (Wavelength=587.6 nm, x2 = 0.6529)?
Answer: 1.34534 ± 0.00034

Question: And the refractive index (Wavelength=587.6 nm, x2 = 0.7504)?
Answer: 1.34138 ± 0.00034

Question: And the refractive index (Wavelength=587.6 nm, x2 = 0.804)?
Answer: 1.33541 ± 0.00035

Question: And the refractive index (Wavelength=587.6 nm, x2 = 0.807)?
Answer: 1.33709 ± 0.00034

Question: What about the refractive index (Wavelength=587.6 nm, x2 = 0.8727) of the same compound?
Answer: 1.33411 ± 0.00033

Question: And the refractive index (Wavelength=587.6 nm, x2 = 0.9233)?
Answer: 1.32614 ± 0.00032

Question: What about the refractive index (Wavelength=587.6 nm, x2 = 0.9253) of the same compound?
Answer: 1.32777 ± 0.00032

Question: What about the refractive index (Wavelength=587.6 nm, x2 = 0.9527) of the same compound?
Answer: 1.32474 ± 0.00032

Question: And the refractive index (Wavelength=587.6 nm, x2 = 0.9773)?
Answer: 1.32177 ± 0.00032

Question: What about the refractive index (Wavelength=587.6 nm, x2 = 0.989) of the same compound?
Answer: 1.32052 ± 0.00032

Question: And the refractive index (Wavelength=587.6 nm, x2 = 0.9964)?
Answer: 1.31967 ± 0.00032

Question: And the refractive index (Wavelength=589.3 nm, x2 = 0)?
Answer: 1.35411 ± 0.00044

Question: And the refractive index (Wavelength=589.3 nm, x2 = 0.0423)?
Answer: 1.35409 ± 0.00043

Question: And the refractive index (Wavelength=589.3 nm, x2 = 0.0424)?
Answer: 1.35405 ± 0.00043

Question: And the refractive index (Wavelength=589.3 nm, x2 = 0.082)?
Answer: 1.35406 ± 0.00042

Question: What about the refractive index (Wavelength=589.3 nm, x2 = 0.0822) of the same compound?
Answer: 1.35418 ± 0.00042

Question: What about the refractive index (Wavelength=589.3 nm, x2 = 0.1171) of the same compound?
Answer: 1.35412 ± 0.00041

Question: What about the refractive index (Wavelength=589.3 nm, x2 = 0.1271) of the same compound?
Answer: 1.3541 ± 0.00041

Question: What about the refractive index (Wavelength=589.3 nm, x2 = 0.1827) of the same compound?
Answer: 1.35395 ± 0.0004

Question: And the refractive index (Wavelength=589.3 nm, x2 = 0.2162)?
Answer: 1.35382 ± 0.0004

Question: And the refractive index (Wavelength=589.3 nm, x2 = 0.251)?
Answer: 1.35333 ± 0.00039

Question: And the refractive index (Wavelength=589.3 nm, x2 = 0.3298)?
Answer: 1.35292 ± 0.00038

Question: What about the refractive index (Wavelength=589.3 nm, x2 = 0.3577) of the same compound?
Answer: 1.35269 ± 0.00038

Question: And the refractive index (Wavelength=589.3 nm, x2 = 0.4497)?
Answer: 1.35157 ± 0.00038

Question: What about the refractive index (Wavelength=589.3 nm, x2 = 0.4525) of the same compound?
Answer: 1.35223 ± 0.00038

Question: And the refractive index (Wavelength=589.3 nm, x2 = 0.522)?
Answer: 1.34989 ± 0.00035

Question: And the refractive index (Wavelength=589.3 nm, x2 = 0.5543)?
Answer: 1.349 ± 0.00035
